Values quoted from earlier work as cited in patent publication US20060104997A1, “Monoterpene compositions and uses thereof” (priority 2001, published 2006).

Test system: advanced N-methyl-N-nitrosourea-induced rat mammary carcinoma

C=C(C)C1CC=C(CO)CC1 (stereo not shown) [perillyl alcohol, 1-hydroxymethyl-4-isopropenyl-1-cyclohexene]
activity relative to limonene: approximately 5 fold
